Laboratory results reported in patent publication US10639251B2, “Method for inhibiting or masking fishy odours” (Symrise AG, priority 2015, dated 2020).
“And” between values parts separate entries of the source, which are not always exact repeats. Equal values may be shown once. “Also recorded” adds a separate entry of the source. Read-outs that look alike come from different tables or passages of the source.

What was measured:
hTAAR5 = target: T1, hTAAR5 (Homo sapiens, UniProt O14804); assay: Cre-luciferase reporter gene assay, hTAAR5-mediated responses to TMA in transfected HANA3A cells; type: cell-based; details: for reduction / inhibition of hTAAR5-mediated TMA responses: TMA 300 μM, putative antagonist 100 μM; for IC50: read-out: half maximal inhibitory concentration (IC50)
T1 construct: expressed in transfected cells; host or cells: HANA3A cells
T1 sequence (O14804 1-337): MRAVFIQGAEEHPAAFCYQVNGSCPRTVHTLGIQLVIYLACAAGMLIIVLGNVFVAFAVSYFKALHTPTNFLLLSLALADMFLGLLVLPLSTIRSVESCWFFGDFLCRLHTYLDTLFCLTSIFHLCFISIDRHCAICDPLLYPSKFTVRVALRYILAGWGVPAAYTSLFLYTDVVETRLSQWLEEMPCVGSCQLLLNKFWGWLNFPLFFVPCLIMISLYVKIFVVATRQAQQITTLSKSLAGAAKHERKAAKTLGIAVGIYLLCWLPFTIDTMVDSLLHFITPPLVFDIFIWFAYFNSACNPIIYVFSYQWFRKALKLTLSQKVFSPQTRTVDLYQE
Protocol: (§1) In order to identify suitable antagonist for TMA the protocol of Zhuang and Matsunami for measuring receptor activity with the Dual-Glo Luciferase Assay System (Promega) was adapted [see Nat. Protoc. 3(9), p. 1402-1413 (2008)]. HANA3A cells were maintained under standard conditions in DMEM supplemented with 10% FBS and 100 units/ml penicillin and streptomycin at 37° C. Cells (approximately 15,000 cells/well) were plated on poly-D-lysine-coated 96-well plates (NUNC) and transfected after 24 h with the FuGENE® HD (Promega) transfection reagent according to the manufacturer's protocol. In a 96-well plate, we placed 18 μl transfection reagent, 1-5 μg receptor plasmid, 2 μg pGL4-luciferase reporter, 1 μg pRL-TK-Renilla reporter, 0.5 μg G-protein αolf, 1 μg receptor transport protein (RTP1S) and 1 μg M3 muscarinic acetylcholine receptor (for hOR51E1) to ensure cell surface expression. Cells were stimulated 24 h after transfection for 4 h at 37° C. with test substances diluted in CD 293 medium (1×) (Life Technologies) with 2 mM L-glutamine (Life Technologies) added. After stimulation with test substances, recombinant hTAAR5 activation elevated cAMP and the subsequent expression of the cAMP-dependent reporter gene construct Cre-luciferase. Expression rates of Cre-luciferase were monitored by luminescent enzymatic reactivity. Thus, luminescence signals correlate with receptor activation. The Renilla luciferase reporter driven by a constitutively active TK-promoter (pRL-TK-Renilla) served as an internal control to determine cell viability and transfection efficiency. Firefly luciferase activity to the Renilla luciferase signal was normalized for all wells. The ratios of antagonistic stimulation were normalized to the ratios of agonist stimulation. Furthermore, mock-transfected cells were stimulated to exclude unspecific responses to the tested substances.
To identify blocker substances for hTAAR5-mediated responses to TMA, the Cre-luciferase reporter gene assay was used. Human TAAR5-transfected HANA3A cells were stimulated with a mix of the agonist TMA (300 μM) and 100 μM of a potential blocker substance (FIG. 1).
For more detailed information concerning the type of antagonism (competitive vs. non-competitive) in the following experiments, the pharmacological profile of Timberol® was characterized. To test the concentration dependency of the Timberol® block, a concentration-inhibition curve (FIG. 2a) was measured. The blocking effect was increased with increasing concentrations of Timberol® and decreased with increasing concentrations of the agonist TMA. The latter was reflected by a significant concentration-inhibition curve shift.

panelists = assay: Olfactory detection threshold of TMA, 3-alternative forced-choice, ISO 13301; type: in vivo, human; details: for influence of additive on TMA detection threshold / perception: 1% Timberol or 0.1% Mugetanol (isointense)
Protocol: In addition, olfactory detection thresholds were assessed in aqueous solutions using a best estimate threshold approach as described in ISO 13301. In brief, samples containing different concentrations of analyte were presented in ascending order in a 3-alternative forced-choice design. Each concentration set consisted of three samples with one deviating sample containing a defined amount of trimethylamine. Samples were presented in amber vials (30 ml) coded with three digits and filled with 10 ml of solution, and panelists were required to designate the sample that differed from the others.
Thresholds of TMA were measured in buffered aqueous solution i) without additive ii) with 1% (m/m) Timberol® and iii) with 0.1% Mugetanol (isointense to 1% Timberol®). These experiments were performed separately on different days with the same panelists. In the case of testing in the presence of fragrance components (Timberol® or Mugetanol), all three samples of a given concentration set contained the same amount of fragrance components and differed only in the presence/absence of TMA. In each session, a total of 10 concentration sets ranging from […] to 1.00×10^−5% (m/m) TMA were evaluated. The concentration doubled in each step.
The aqueous solutions were buffered with TRIS (50 mM), and the pH was adjusted to 9 to have approximately 13% of the TMA in a deprotonated and thus volatile form. Furthermore, an odorless emulsifier was added to a final concentration of 3% (m/m) to dissolve Timberol®.
In a second step, the influence of Timberol® on the perception of TMA was investigated using a psychophysical approach. Therefore the detection thresholds of TMA alone and in the presence of suprathreshold concentrations of Timberol® were tested. Threshold measurements were performed in a 3-alternative forced-choice design according to ISO 13301. A total of 10 concentrations (binary dilution steps) ranging from […] to 1.00×10^−5% (m/m) TMA were examined.

MOR42-3 [1] = target: T2, MOR42-3 (Mus musculus, UniProt E9PX47); assay: Cre-luciferase reporter gene assay, concentration-response curve of azelaic acid on MOR42-3 (Dual-Glo Luciferase, transfected HANA3A cells); type: cell-based; details: agonist alone; murine olfactory receptor MOR42-3 recombinantly expressed in HANA3A cells with RTP1S, G-protein αolf, pGL4-luciferase and pRL-TK-Renilla reporters; 4 h at 37° C.; Hill fit; n=3 in duplicate; FIG. 4A left
T2 construct: CRE-luciferase readout normalized to Renilla
T2 sequence (E9PX47 1-334): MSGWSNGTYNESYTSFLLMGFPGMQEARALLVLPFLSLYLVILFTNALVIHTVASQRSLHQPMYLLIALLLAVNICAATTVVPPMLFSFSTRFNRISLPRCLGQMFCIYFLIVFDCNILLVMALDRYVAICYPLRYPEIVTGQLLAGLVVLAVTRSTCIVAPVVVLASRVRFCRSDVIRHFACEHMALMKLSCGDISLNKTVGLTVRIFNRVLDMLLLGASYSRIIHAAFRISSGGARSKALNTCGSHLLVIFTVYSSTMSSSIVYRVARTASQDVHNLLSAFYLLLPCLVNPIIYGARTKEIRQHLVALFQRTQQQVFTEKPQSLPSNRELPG
Protocol: (§2) In order to identify suitable antagonist for TMA the protocol of Zhuang and Matsunami for measuring receptor activity with the Dual-Glo Luciferase Assay System (Promega) was adapted [see Nat. Protoc. 3(9), p. 1402-1413 (2008)]. HANA3A cells were maintained under standard conditions in DMEM supplemented with 10% FBS and 100 units/ml penicillin and streptomycin at 37° C. Cells (approximately 15,000 cells/well) were plated on poly-D-lysine-coated 96-well plates (NUNC) and transfected after 24 h with the FuGENE® HD (Promega) transfection reagent according to the manufacturer's protocol. […] Expression rates of Cre-luciferase were monitored by luminescent enzymatic reactivity. Thus, luminescence signals correlate with receptor activation. […]
For statistical analysis of Cre-luciferase assay data, two-tailed unpaired Student's t-test. […] Sensory data was analyzed using non-parametric statistical tests. The overall difference between the group thresholds was determined by a Kruskal-Wallis test, followed by a Dunn post-hoc test for the respective pairwise comparisons.
(§3) Another experiment was directed to figure out whether the Timberol® block is exclusively mediated by hTAAR5. […] Then the impact of Timberol® on MOR42-3- and hOR51E1-mediated responses to the respective agonists was tested with concentrations below and above the calculated EC50 values. […]

intracellular cAMP = assay: Control experiments: intracellular cAMP level in hTAAR5-transfected HANA3A cells (basal and forskolin-stimulated); type: cell-based, human
Protocol: as §1, with “The Renilla luciferase reporter driven by a constitutively active TK-promoter (pRL-TK-Renilla) served as an internal control to determine cell viability and transfection efficiency. Firefly luciferase activity to the Renilla luciferase signal was normalized for all wells. The ratios of antagonistic stimulation were normalized to the ratios of agonist stimulation. Furthermore, mock-transfected cells were stimulated to exclude unspecific responses to the tested substances.” left out

murine TAAR5 = target: T3, murine TAAR5 (Mus musculus, UniProt Q5QD14); assay: Cre-luciferase assay, murine TAAR5 responses to TMA; type: cell-based; details: Timberol 100 μM
T3 construct: expressed in transfected cells; host or cells: HANA3A cells
T3 sequence (Q5QD14 1-337): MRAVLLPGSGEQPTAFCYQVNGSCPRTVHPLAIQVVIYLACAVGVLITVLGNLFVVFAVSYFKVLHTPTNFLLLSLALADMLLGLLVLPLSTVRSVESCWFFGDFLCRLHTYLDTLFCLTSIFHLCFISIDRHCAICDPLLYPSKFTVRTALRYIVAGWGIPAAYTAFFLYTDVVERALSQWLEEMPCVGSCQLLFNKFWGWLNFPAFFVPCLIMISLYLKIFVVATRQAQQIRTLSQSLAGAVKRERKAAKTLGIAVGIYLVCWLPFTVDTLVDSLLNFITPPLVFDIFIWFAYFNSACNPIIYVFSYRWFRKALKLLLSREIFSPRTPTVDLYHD

hOR51E1 = target: T4, hOR51E1 (Homo sapiens, UniProt Q8TCB6); assay: Cre-luciferase assay, hOR51E1-mediated responses to nonanoic acid; type: cell-based; parameters: expressed in transfected cells; host or cells: HANA3A cells; details: Timberol 30 μM; agonist below and above EC50
T4 sequence (Q8TCB6 1-318): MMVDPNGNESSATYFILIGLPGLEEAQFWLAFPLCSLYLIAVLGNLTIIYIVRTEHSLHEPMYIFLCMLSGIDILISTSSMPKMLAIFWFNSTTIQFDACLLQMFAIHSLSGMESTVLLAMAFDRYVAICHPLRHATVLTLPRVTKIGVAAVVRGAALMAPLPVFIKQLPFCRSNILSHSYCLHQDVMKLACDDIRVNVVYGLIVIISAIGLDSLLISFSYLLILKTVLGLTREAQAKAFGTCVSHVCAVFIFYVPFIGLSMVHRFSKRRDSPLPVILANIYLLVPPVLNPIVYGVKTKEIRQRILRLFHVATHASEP
Protocol: as §2, with “protocol. In a 96-well plate, we placed 18 μl transfection reagent, 1-5 μg receptor plasmid, 2 μg pGL4-luciferase reporter, 1 μg pRL-TK-Renilla reporter, 0.5 μg G-protein αolf, 1 μg receptor transport protein (RTP1S) and 1 μg M3 muscarinic acetylcholine receptor (for hOR51E1) to ensure cell surface expression.” for “protocol.”
as §3

MOR42-3 [2] = assay: Cre-luciferase assay, MOR42-3-mediated responses to azelaic acid; type: cell-based, murine; details: Timberol 30 μM; agonist below and above EC50
Protocol: as §2, with “protocol. In a 96-well plate, we placed 18 μl transfection reagent, 1-5 μg receptor plasmid, 2 μg pGL4-luciferase reporter, 1 μg pRL-TK-Renilla reporter, 0.5 μg G-protein αolf, 1 μg receptor transport protein (RTP1S) and 1 μg M3 muscarinic acetylcholine receptor (for hOR51E1) to ensure cell surface expression.” for “protocol.”
as §3

## CC(C)C1CCC(C(C)O)CC1 (centres unmarked) [Mugetanol, reference compound]
hTAAR5
  reduction / inhibition of hTAAR5-mediated TMA responses: does not inhibit
panelists
  influence of additive on TMA detection threshold / perception: does not influence significantly

## O=C(O)CCCCCCCC(=O)O [Azelaic acid, azelaic acid]
MOR42-3 [1]
  EC50: 2.67 ± 0.47 µM

## CCCC(O)CCC1C(C)CCCC1(C)C (centres unmarked) [Timberol®, Norlimbanol]
Intracellular cAMP; Timberol (100 μM) alone vs unstimulated controls
  basal cAMP production: No significant reduction; also recorded: did not affect
Intracellular cAMP; Timberol (100 μM) mixed with 10 μM forskolin vs forskolin alone
  cAMP levels after forskolin: no significant difference; also recorded: did not affect
Murine TAAR5; 1 μM TMA
  blocking effect on murine TAAR5: 34%±2%
Murine TAAR5
  inhibition of mTAAR5-mediated responses to TMA: able to block; also recorded: inhibits
hTAAR5; 30 μM Timberol
  block of average hTAAR5 responses: at least 50%
hTAAR5; 30 μM Timberol, 30 μM TMA
  block of hTAAR5 response: ~78%
hTAAR5; 30 μM Timberol, 100 μM TMA
  block of hTAAR5 response: ~56%
hTAAR5; 100 μM Timberol, 30 μM TMA
  blocking effect: ~96% and 96%±1.7%
hTAAR5; 100 μM Timberol, 100 μM TMA
  blocking effect: 86%±3.6%
hTAAR5; 100 μM Timberol, 300 μM TMA
  inhibition of hTAAR5 responses to TMA: 72%±6%
hTAAR5; TMA 30 μM
  IC50: 16.6 µM
hTAAR5; TMA 100 μM
  IC50: 27.8 µM
hTAAR5
  reduction / inhibition of hTAAR5-mediated TMA responses: nearly completely block
panelists
  influence of additive on TMA detection threshold / perception: abolished the ability to perceive TMA around perithreshold concentrations; also recorded: shifted to a significantly higher concentration
panelists; of the 27 tested subjects
  subjects less sensitive to TMA in the presence of Timberol: 23
hOR51E1
  blocking effect on hOR51E1-mediated responses to nonanoic acid: no any significant impact; also recorded: No significant blocking effects
MOR42-3 [2]
  blocking effect on MOR42-3-mediated responses to azelaic acid: no any significant impact; also recorded: No significant blocking effects
